Tested on: MV-4-11 cells
Test: Gene expression microarray analysis (Affymetrix PrimeView) and GSEA
Assay type: cell-based, human
Set-up: RFU PODN (11730768_x_at) / Fold change /veh PODN (11730768_x_at) / RFU LINC00158 (11744669_a_at) / Fold change /veh LINC00158 (11744669_a_at) / RFU DUSP10 (11751237_a_at) / Fold change /veh DUSP10 (11751237_a_at) / RFU ID3 (11757404_x_at) / Fold change /veh ID3 (11757404_x_at) / RFU PLEKHG5 (11737974_s_at) / Fold change /veh PLEKHG5 (11737974_s_at) / RFU LRRC4B (11730491_at) / Fold change /veh LRRC4B (11730491_at) / RFU GIMAP4 (11747438_a_at) / Fold change /veh GIMAP4 (11747438_a_at) / RFU KRT8 (11758183_x_at) / Fold change /veh KRT8 (11758183_x_at) / RFU CNN1 (11734310_a_at) / Fold change /veh CNN1 (11734310_a_at) / RFU VPS37D (11726825_at) / Fold change /veh VPS37D (11726825_at) / RFU C10orf10 (11716522_x_at) / Fold change /veh C10orf10 (11716522_x_at) / RFU KIR2DL2 /// KIR2DL4 /// KIR2DL5A /// KIR2DL5B /// KIR2DS1 /// KIR2DS2 /// KIR2DS3 /// KIR2DS4 /// KIR3DL3 /// KIR3DL3 /// KIR3DS1 (11738374_at) / Fold change /veh KIR2DL2 /// KIR2DL4 /// KIR2DL5A /// KIR2DL5B /// KIR2DS1 /// KIR2DS2 /// KIR2DS3 /// KIR2DS4 /// KIR3DL3 /// KIR3DL3 /// KIR3DS1 (11738374_at) / RFU C1QL1 (11718748_at) / Fold change /veh C1QL1 (11718748_at) / RFU TMPRSS4 (11747572_a_at) / Fold change /veh TMPRSS4 (11747572_a_at) / RFU HAMP (11756126_x_at) / Fold change /veh HAMP (11756126_x_at) / RFU RNFT2 (11725882_a_at) / Fold change /veh RNFT2 (11725882_a_at) / RFU NR4A2 (11747474_a_at) / Fold change /veh NR4A2 (11747474_a_at) / RFU ABCC12 (11746883_a_at) / Fold change /veh ABCC12 (11746883_a_at) / RFU TMEM136 (11760407_x_at) / Fold change /veh TMEM136 (11760407_x_at) / RFU CLDN22 /// WWC2 (11732394_at) / Fold change /veh CLDN22 /// WWC2 (11732394_at) / RFU HLA-DPB1 (11760878_x_at) / Fold change /veh HLA-DPB1 (11760878_x_at) / RFU SPINT1 (11716480_a_at) / Fold change /veh SPINT1 (11716480_a_at) / RFU GAP43 (11754022_s_at) / Fold change /veh GAP43 (11754022_s_at) / RFU A4GNT (11735810_at) / Fold change /veh A4GNT (11735810_at) / RFU PRB3 (11715151_x_at) / Fold change /veh PRB3 (11715151_x_at) / RFU TUBB4B (11761932_at) / Fold change /veh TUBB4B (11761932_at) / RFU CAPN14 (11732068_a_at) / Fold change /veh CAPN14 (11732068_a_at) / RFU TMCC2 (11721928_a_at) / Fold change /veh TMCC2 (11721928_a_at) / RFU IRGQ (11745062_a_at) / Fold change /veh IRGQ (11745062_a_at) / RFU FAM174B (11720279_a_at) / Fold change /veh FAM174B (11720279_a_at) / RFU TMPRSS4 (11748680_a_at) / Fold change /veh TMPRSS4 (11748680_a_at) / RFU FAM212B (11763350_a_at) / Fold change /veh FAM212B (11763350_a_at) / RFU PLEKHG5 (11743358_a_at) / Fold change /veh PLEKHG5 (11743358_a_at) / RFU ZSCAN30 (11745921_a_at) / Fold change /veh ZSCAN30 (11745921_a_at) / RFU CMKLR1 (11741424_a_at) / Fold change /veh CMKLR1 (11741424_a_at) / RFU LOC101060620 /// MAPK8IP1 (11723275_at) / Fold change /veh LOC101060620 /// MAPK8IP1 (11723275_at) / RFU SPTSSB (11747773_x_at) / Fold change /veh SPTSSB (11747773_x_at) / RFU PRSS12 (11739890_at) / Fold change /veh PRSS12 (11739890_at) / RFU BIN1 (11741810_x_at) / Fold change /veh BIN1 (11741810_x_at) / RFU WNT11 (11732464_a_at) / Fold change /veh WNT11 (11732464_a_at) / RFU C10orf10 (11716521_a_at) / Fold change /veh C10orf10 (11716521_a_at) / RFU C5orf56 (11738089_at) / Fold change /veh C5orf56 (11738089_at) / RFU CYB561 (11721691_x_at) / Fold change /veh CYB561 (11721691_x_at) / RFU ANKRD19P (11752326_a_at) / Fold change /veh ANKRD19P (11752326_a_at) / RFU OR2T12 /// OR2T33 /// OR2T8 (11738714_s_at) / Fold change /veh OR2T12 /// OR2T33 /// OR2T8 (11738714_s_at) / RFU VCAN (11748164_a_at) / Fold change /veh VCAN (11748164_a_at) / RFU JSRP1 (11732532_at) / Fold change /veh JSRP1 (11732532_at) / RFU KRTAP10-11 (11738290_x_at) / Fold change /veh KRTAP10-11 (11738290_x_at) / RFU MYO3A (11730013_a_at) / Fold change /veh MYO3A (11730013_a_at) / RFU EBF3 (11725865_a_at) / Fold change /veh EBF3 (11725865_a_at) / RFU CAMK2N1 (11719241_x_at) / Fold change /veh CAMK2N1 (11719241_x_at) / RFU C5orf56 (11738088_a_at) / Fold change /veh C5orf56 (11738088_a_at) / RFU OLFML3 (11715873_a_at) / Fold change /veh OLFML3 (11715873_a_at) / RFU LOC100653217 /// NTM (11731650_a_at) / Fold change /veh LOC100653217 /// NTM (11731650_a_at) / RFU MAPK11 (11762145_a_at) / Fold change /veh MAPK11 (11762145_a_at) / RFU FIZ1 (11724087_x_at) / Fold change /veh FIZ1 (11724087_x_at) / RFU OASL (11726364_x_at) / Fold change /veh OASL (11726364_x_at) / RFU SOX15 (11748057_x_at) / Fold change /veh SOX15 (11748057_x_at) / RFU CD79A (11719716_a_at) / Fold change /veh CD79A (11719716_a_at) / RFU HIST1H1D (11736915_at) / Fold change /veh HIST1H1D (11736915_at) / RFU CASKIN2 (11723855_a_at) / Fold change /veh CASKIN2 (11723855_a_at) / RFU LOC730098 (11760151_x_at) / Fold change /veh LOC730098 (11760151_x_at) / RFU OR4N2 (11742367_at) / Fold change /veh OR4N2 (11742367_at) / RFU PRRT2 (11749266_a_at) / Fold change /veh PRRT2 (11749266_a_at) / RFU SNX32 (11753110_a_at) / Fold change /veh SNX32 (11753110_a_at) / RFU CDHR5 (11726645_a_at) / Fold change /veh CDHR5 (11726645_a_at) / RFU RCAN1 (11760418_a_at) / Fold change /veh RCAN1 (11760418_a_at) / RFU FAM167A (11723789_a_at) / Fold change /veh FAM167A (11723789_a_at) / RFU FAM26E (11764081_at) / Fold change /veh FAM26E (11764081_at) / RFU ISYNA1 (11749810_s_at) / Fold change /veh ISYNA1 (11749810_s_at) / RFU ACY1 (11761880_at) / Fold change /veh ACY1 (11761880_at) / RFU 11764098_at / Fold change /veh 11764098_at / RFU SAMD14 (11745864_x_at) / Fold change /veh SAMD14 (11745864_x_at) / RFU NPB (11741838_a_at) / Fold change /veh NPB (11741838_a_at) / RFU TMPRSS6 (11731388_a_at) / Fold change /veh TMPRSS6 (11731388_a_at) / RFU KRTAP10-2 (11738614_at) / Fold change /veh KRTAP10-2 (11738614_at) / RFU ARHGAP8 /// PRR5-ARHGAP8 (11727945_x_at) / Fold change /veh ARHGAP8 /// PRR5-ARHGAP8 (11727945_x_at) / RFU KRTAP5-7 /// NADSYN1 (11734609_at) / Fold change /veh KRTAP5-7 /// NADSYN1 (11734609_at) / RFU RASL12 (11751679_a_at) / Fold change /veh RASL12 (11751679_a_at) / RFU CDKN2B (11736163_a_at) / Fold change /veh CDKN2B (11736163_a_at) / RFU PRF1 (11729649_at) / Fold change /veh PRF1 (11729649_at) / RFU, ZNF638 /// ZNF638-IT1 / Fold change vs veh, ZNF638 /// ZNF638-IT1 / RFU, PANK3 / Fold change vs veh, PANK3 / RFU, SH3YL1 / Fold change vs veh, SH3YL1 / RFU, ZEB2 / Fold change vs veh, ZEB2 / RFU, NRIP1 / Fold change vs veh, NRIP1 / RFU, PTTG1IP / Fold change vs veh, PTTG1IP / RFU, CAPN2 / Fold change vs veh, CAPN2 / RFU, MED14 / Fold change vs veh, MED14 / RFU, SNORA58 / Fold change vs veh, SNORA58 / RFU, C1orf63 / Fold change vs veh, C1orf63 / RFU, LRRFIP1 / Fold change vs veh, LRRFIP1 / RFU, NDUFAF7 / Fold change vs veh, NDUFAF7 / RFU, SLC12A2 / Fold change vs veh, SLC12A2 / RFU, IBTK / Fold change vs veh, IBTK / RFU, ESF1 / Fold change vs veh, ESF1 / Fold change vs veh, TMEM50B / RFU, TAOK1 / Fold change vs veh, TAOK1 / RFU, ACBD3 / Fold change vs veh, ACBD3 / RFU, TMA16 / Fold change vs veh, TMA16 / RFU, RWDD3 / Fold change vs veh, RWDD3 / RFU, BCAT1 / Fold change vs veh, BCAT1 / RFU, EDEM3 / Fold change vs veh, EDEM3 / RFU, TMEM33 / Fold change vs veh, TMEM33 / RFU, WDR75 / Fold change vs veh, WDR75 / RFU, AHCTF1 / Fold change vs veh, AHCTF1 / RFU, TFRC / Fold change vs veh, TFRC / RFU, ZDHHC17 / Fold change vs veh, ZDHHC17 / RFU, NOM1 / Fold change vs veh, NOM1 / RFU, ARL8B / Fold change vs veh, ARL8B / RFU, ZBTB11 / Fold change vs veh, ZBTB11 / RFU, TAMM41 / Fold change vs veh, TAMM41 / RFU, KIAA1704 /// LOC100996395 / Fold change vs veh, KIAA1704 /// LOC100996395 / RFU, ING1 / Fold change vs veh, ING1 / RFU, TRMT61B / Fold change vs veh, TRMT61B / RFU, FUBP3 / Fold change vs veh, FUBP3 / RFU, TP53 / Fold change vs veh, TP53 / RFU, TNKS2 / Fold change vs veh, TNKS2 / RFU, ZFP14 / Fold change vs veh, ZFP14 / RFU, ACTR2 / Fold change vs veh, ACTR2 / RFU, PPP3R1 / Fold change vs veh, PPP3R1 / RFU, PIK3R1 / Fold change vs veh, PIK3R1 / RFU, HNRNPA1 / Fold change vs veh, HNRNPA1 / RFU, RNF170 / Fold change vs veh, RNF170 / RFU, ZNF28 / Fold change vs veh, ZNF28 / RFU, RNGTT / Fold change vs veh, RNGTT / RFU, OGT / Fold change vs veh, OGT / RFU, BRD1 / Fold change vs veh, BRD1 / RFU, MARS / Fold change vs veh, MARS / RFU, ZNF655 / Fold change vs veh, ZNF655 / RFU, FAHD1 / Fold change vs veh, FAHD1 / RFU, BDP1 / Fold change vs veh, BDP1 / RFU, LRRCC1 / Fold change vs veh, LRRCC1 / RFU, ARID1A / Fold change vs veh, ARID1A / RFU, ZNF146 / Fold change vs veh, ZNF146 / RFU, ZNF330 / Fold change vs veh, ZNF330 / RFU, GPN3 / Fold change vs veh, GPN3 / RFU, C9orf123 / Fold change vs veh, C9orf123 / RFU, N4BP2L2 / Fold change vs veh, N4BP2L2 / RFU, ARFIP1 / Fold change vs veh, ARFIP1 / RFU, FAM179B / Fold change vs veh, FAM179B / RFU, BCL10 / Fold change vs veh, BCL10 / RFU, UHRF1BP1L / Fold change vs veh, UHRF1BP1L / RFU, BET1 / Fold change vs veh, BET1 / RFU, CNOT2 / Fold change vs veh, CNOT2 / RFU, ZNF268 / Fold change vs veh, ZNF268 / Fold change vs veh, ZNF507 / RFU, DGCR2 / Fold change vs veh, DGCR2 / RFU, WDSUB1 / Fold change vs veh, WDSUB1 / Fold change vs veh, HSP90B1 /// MIR3652 / RFU, ADSS / Fold change vs veh, ADSS / RFU, GK / Fold change vs veh, GK / RFU, ZNF148 / Fold change vs veh, ZNF148 / RFU, TAF9 / Fold change vs veh, TAF9 / RFU, SLC1A5 / Fold change vs veh, SLC1A5 / RFU, SLMO2 / Fold change vs veh, SLMO2 / RFU, ABCC4 / Fold change vs veh, ABCC4 / RFU, LOC101060439 /// RAP1B / Fold change vs veh, LOC101060439 /// RAP1B / RFU, RFX7 / Fold change vs veh, RFX7 / RFU, GTPBP10 / Fold change vs veh, GTPBP10 / RFU, CNEP1R1 / Fold change vs veh, CNEP1R1 / RFU, BIVM-ERCC5 /// ERCC5 / Fold change vs veh, BIVM-ERCC5 /// ERCC5 / RFU, ILF3 / Fold change vs veh, ILF3 / RFU 11762660_at / Fold change /veh 11762660_at / RFU VCAN (11757783_s_at) / Fold change /veh VCAN (11757783_s_at) / RFU DDX43 (11728927_at) / Fold change /veh DDX43 (11728927_at) / RFU KRT8 (11758188_x_at) / Fold change /veh KRT8 (11758188_x_at) / RFU NKD1 (11759106_at) / Fold change /veh NKD1 (11759106_at) / RFU SRD5A1 (11742802_a_at) / Fold change /veh SRD5A1 (11742802_a_at) / RFU TPSAB1 /// TPSB2 (11721975_s_at) / Fold change /veh TPSAB1 /// TPSB2 (11721975_s_at) / RFU GSTM3 (11746129_a_at) / Fold change /veh GSTM3 (11746129_a_at) / RFU IL23R (11737362_x_at) / Fold change /veh IL23R (11737362_x_at) / RFU TMEM51 (11727254_a_at) / Fold change /veh TMEM51 (11727254_a_at) / RFU PIWIL2 (11732686_x_at) / Fold change /veh PIWIL2 (11732686_x_at) / RFU ORM1 (11744905_x_at) / Fold change /veh ORM1 (11744905_x_at) / RFU CCDC152 (11743942_at) / Fold change /veh CCDC152 (11743942_at) / RFU ECM1 (11717891_a_at) / Fold change /veh ECM1 (11717891_a_at) / RFU IL23R (11748794_a_at) / Fold change /veh IL23R (11748794_a_at) / RFU TNFAIP8L3 (11732012_x_at) / Fold change /veh TNFAIP8L3 (11732012_x_at) / RFU MBOAT4 (11741988_at) / Fold change /veh MBOAT4 (11741988_at) / RFU 11764193_at / Fold change /veh 11764193_at / RFU TMEM53 (11763286_at) / Fold change /veh TMEM53 (11763286_at) / RFU MAGEB2 (11727129_at) / Fold change /veh MAGEB2 (11727129_at) / RFU TMEM200A (11744735_a_at) / Fold change /veh TMEM200A (11744735_a_at) / RFU CCDC152 (11751479_a_at) / Fold change /veh CCDC152 (11751479_a_at) / RFU FAM211A (11726209_a_at) / Fold change /veh FAM211A (11726209_a_at) / RFU RGS16 (11746705_a_at) / Fold change /veh RGS16 (11746705_a_at) / RFU VCAN (11755009_s_at) / Fold change /veh VCAN (11755009_s_at) / RFU RHOB (11743442_s_at) / Fold change /veh RHOB (11743442_s_at) / RFU RGS16 (11720943_a_at) / Fold change /veh RGS16 (11720943_a_at) / RFU RGS16 (11720944_at) / Fold change /veh RGS16 (11720944_at) / RFU, VPS4B / Fold change vs veh, VPS4B / RFU, CREB1 / Fold change vs veh, CREB1 / RFU, DNAJC13 / Fold change vs veh, DNAJC13 / RFU, GNAQ / Fold change vs veh, GNAQ / RFU, CDK5R1 / Fold change vs veh, CDK5R1 / RFU, ZRANB3 / Fold change vs veh, ZRANB3 / RFU, CUL4A / Fold change vs veh, CUL4A / RFU, CCNY / Fold change vs veh, CCNY / RFU, UFL1 / Fold change vs veh, UFL1 / RFU, COG3 / Fold change vs veh, COG3 / RFU, DIAPH2 / Fold change vs veh, DIAPH2 / RFU, SKA2 / Fold change vs veh, SKA2 / RFU, AFF3 / Fold change vs veh, AFF3 / RFU, LMF1 / Fold change vs veh, LMF1 / RFU, IPO11 / Fold change vs veh, IPO11 / RFU, DFFB / Fold change vs veh, DFFB / RFU, FOXP1 / Fold change vs veh, FOXP1 / RFU, CARD8 / Fold change vs veh, CARD8 / RFU, STRN3 / Fold change vs veh, STRN3 / RFU, ADK / Fold change vs veh, ADK / RFU, RASSF2 / Fold change vs veh, RASSF2 / RFU, WIPF1 / Fold change vs veh, WIPF1 / RFU, LARP1B / Fold change vs veh, LARP1B / RFU, RASA1 / Fold change vs veh, RASA1 / RFU, RB1 / Fold change vs veh, RB1 / RFU, PPFIA1 / Fold change vs veh, PPFIA1 / RFU, MAT2A / Fold change vs veh, MAT2A / RFU, CCT5 / Fold change vs veh, CCT5 / RFU, WDR92 / Fold change vs veh, WDR92 / RFU, CUX1 / Fold change vs veh, CUX1 / RFU, TTC7A / Fold change vs veh, TTC7A / RFU, TMEM135 / Fold change vs veh, TMEM135 / RFU, DEPTOR / Fold change vs veh, DEPTOR / RFU, CPM / Fold change vs veh, CPM / RFU, DNAJB6 / Fold change vs veh, DNAJB6 / RFU, CACNA2D3 / Fold change vs veh, CACNA2D3 / RFU, DTX4 / Fold change vs veh, DTX4 / RFU, TFCP2 / Fold change vs veh, TFCP2 / RFU, GMCL1 /// GMCL1P1 / Fold change vs veh, GMCL1 /// GMCL1P1 / RFU, AEBP2 / Fold change vs veh, AEBP2 / RFU, SNHG1 /// SNORD22 /// SNORD25 /// SNORD26 /// SNORD27 /// SNORD28 /// SNORD29 /// SNORD31 / Fold change vs veh, SNHG1 /// SNORD22 /// SNORD25 /// SNORD26 /// SNORD27 /// SNORD28 /// SNORD29 /// SNORD31 / Fold change (Aza/veh), C12orf56 (ProbeSet 11735607_a_at) / Fold change (ACY-1035/veh), C12orf56 (ProbeSet 11735607_a_at) / Fold change (Aza/veh), FGFR1OP (ProbeSet 11751329_s_at) / Fold change (ACY-1035/veh), FGFR1OP (ProbeSet 11751329_s_at) / Fold change (Aza/veh), VPS36 (ProbeSet 11739960_a_at) / Fold change (ACY-1035/veh), VPS36 (ProbeSet 11739960_a_at) / RFU SYPL1 (11715823_x_at) / Fold change /veh SYPL1 (11715823_x_at) / RFU IGFBP7 (11715501_s_at) / Fold change /veh IGFBP7 (11715501_s_at) / RFU REEP3 (11722064_at) / Fold change /veh REEP3 (11722064_at) / RFU IGLL1 (11728026_x_at) / Fold change /veh IGLL1 (11728026_x_at): dose or concentration left out as unconfirmed
Details: ProbeSet 11755436_x_at; LIST B

Nc1ccc(-c2cccs2)cc1NC(=O)c1ccc2c(c1)cc(C1CC1)n2CCN1CCOCC1 [ACY-1035]
Fold change vs veh, ARID1A: 0.98
